This note sets out measurements from ChEMBL document CHEMBL3431459, “Roche carnitine palmitoyltransferase modulator screening data (supplementary data associated with the publication CHEMBL2216752)”.

pIC50: −log10 of the molar value. Some results are limits rather than exact numbers.

Assay [1] has as its target T1, Carnitine O-palmitoyltransferase 1, muscle isoform (Homo sapiens, UniProt Q92523).
T1 sequence (Q92523 whole entry): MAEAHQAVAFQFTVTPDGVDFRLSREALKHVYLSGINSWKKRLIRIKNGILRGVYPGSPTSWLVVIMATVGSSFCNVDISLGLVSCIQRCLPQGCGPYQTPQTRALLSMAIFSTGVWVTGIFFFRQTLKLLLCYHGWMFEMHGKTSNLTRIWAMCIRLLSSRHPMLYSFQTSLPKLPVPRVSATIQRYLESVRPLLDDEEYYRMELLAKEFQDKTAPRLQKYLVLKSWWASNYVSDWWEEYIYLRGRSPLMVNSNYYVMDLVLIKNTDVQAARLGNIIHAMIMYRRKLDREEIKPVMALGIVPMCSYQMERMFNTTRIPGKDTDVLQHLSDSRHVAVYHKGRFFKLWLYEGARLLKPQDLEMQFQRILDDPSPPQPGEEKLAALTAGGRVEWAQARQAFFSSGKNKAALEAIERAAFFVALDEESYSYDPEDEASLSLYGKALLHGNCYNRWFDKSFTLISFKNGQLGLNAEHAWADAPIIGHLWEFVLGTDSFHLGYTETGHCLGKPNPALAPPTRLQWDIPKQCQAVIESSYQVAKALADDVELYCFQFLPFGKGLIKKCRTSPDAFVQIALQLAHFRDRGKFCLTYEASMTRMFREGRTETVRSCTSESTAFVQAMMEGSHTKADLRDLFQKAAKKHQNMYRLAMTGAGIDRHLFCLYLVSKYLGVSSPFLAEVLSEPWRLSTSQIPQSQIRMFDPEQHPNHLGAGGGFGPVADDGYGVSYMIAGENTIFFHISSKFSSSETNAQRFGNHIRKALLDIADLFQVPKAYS
Description: SUPPLEMENTARY: Inhibition of Carnitine palmitoyltransferase 1, muscle isoform. On the set-up: species or system Muscle tissue.

Assay [2] concerns the target T2, Carnitine O-palmitoyltransferase 2, mitochondrial (Homo sapiens, UniProt P23786).
T2 sequence (P23786 whole entry): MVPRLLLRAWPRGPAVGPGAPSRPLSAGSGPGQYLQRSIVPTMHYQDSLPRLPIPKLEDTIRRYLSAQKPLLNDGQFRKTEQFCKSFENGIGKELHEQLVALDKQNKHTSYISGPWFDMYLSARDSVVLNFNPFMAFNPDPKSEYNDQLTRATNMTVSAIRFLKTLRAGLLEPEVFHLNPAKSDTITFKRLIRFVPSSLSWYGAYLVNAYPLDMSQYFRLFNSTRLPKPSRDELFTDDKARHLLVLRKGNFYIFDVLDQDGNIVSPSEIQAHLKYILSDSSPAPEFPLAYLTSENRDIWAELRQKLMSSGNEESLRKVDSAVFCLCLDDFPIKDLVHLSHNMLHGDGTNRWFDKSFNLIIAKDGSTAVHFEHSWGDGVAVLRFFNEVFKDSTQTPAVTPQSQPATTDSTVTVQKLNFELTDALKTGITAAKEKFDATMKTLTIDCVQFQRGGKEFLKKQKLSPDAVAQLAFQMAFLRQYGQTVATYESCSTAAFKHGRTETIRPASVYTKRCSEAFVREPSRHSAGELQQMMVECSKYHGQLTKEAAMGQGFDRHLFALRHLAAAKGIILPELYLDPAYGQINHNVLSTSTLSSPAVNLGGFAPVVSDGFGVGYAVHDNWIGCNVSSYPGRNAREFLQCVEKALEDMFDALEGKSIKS
Description: (§1) SUPPLEMENTARY: Inhibition of Carnitine palmitoyltransferase 2.

For assay [3], the target named is T3, Carnitine O-palmitoyltransferase 2, mitochondrial (Rattus norvegicus, UniProt P18886).
T3 sequence (P18886 whole entry): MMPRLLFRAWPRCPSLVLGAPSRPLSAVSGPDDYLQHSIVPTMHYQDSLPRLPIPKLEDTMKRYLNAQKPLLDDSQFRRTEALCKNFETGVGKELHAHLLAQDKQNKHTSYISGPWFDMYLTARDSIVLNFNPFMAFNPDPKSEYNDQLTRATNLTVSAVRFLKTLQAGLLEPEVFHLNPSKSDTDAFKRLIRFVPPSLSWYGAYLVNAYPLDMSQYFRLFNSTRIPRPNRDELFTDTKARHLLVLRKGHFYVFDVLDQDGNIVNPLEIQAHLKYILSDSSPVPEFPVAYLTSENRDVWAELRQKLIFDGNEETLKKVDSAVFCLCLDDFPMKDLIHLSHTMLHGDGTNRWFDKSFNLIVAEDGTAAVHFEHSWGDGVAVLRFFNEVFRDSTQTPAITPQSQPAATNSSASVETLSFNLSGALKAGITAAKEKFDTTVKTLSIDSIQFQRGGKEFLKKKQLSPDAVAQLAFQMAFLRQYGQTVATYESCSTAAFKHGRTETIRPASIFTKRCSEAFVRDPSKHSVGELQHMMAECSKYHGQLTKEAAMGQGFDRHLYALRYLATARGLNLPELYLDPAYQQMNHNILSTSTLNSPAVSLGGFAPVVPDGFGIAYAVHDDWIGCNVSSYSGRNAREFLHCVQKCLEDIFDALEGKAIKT
The assay is described as §1.

In assay [4] the target is T4, Carnitine O-palmitoyltransferase 1, liver isoform (Homo sapiens, UniProt P50416).
T4 sequence (P50416 whole entry): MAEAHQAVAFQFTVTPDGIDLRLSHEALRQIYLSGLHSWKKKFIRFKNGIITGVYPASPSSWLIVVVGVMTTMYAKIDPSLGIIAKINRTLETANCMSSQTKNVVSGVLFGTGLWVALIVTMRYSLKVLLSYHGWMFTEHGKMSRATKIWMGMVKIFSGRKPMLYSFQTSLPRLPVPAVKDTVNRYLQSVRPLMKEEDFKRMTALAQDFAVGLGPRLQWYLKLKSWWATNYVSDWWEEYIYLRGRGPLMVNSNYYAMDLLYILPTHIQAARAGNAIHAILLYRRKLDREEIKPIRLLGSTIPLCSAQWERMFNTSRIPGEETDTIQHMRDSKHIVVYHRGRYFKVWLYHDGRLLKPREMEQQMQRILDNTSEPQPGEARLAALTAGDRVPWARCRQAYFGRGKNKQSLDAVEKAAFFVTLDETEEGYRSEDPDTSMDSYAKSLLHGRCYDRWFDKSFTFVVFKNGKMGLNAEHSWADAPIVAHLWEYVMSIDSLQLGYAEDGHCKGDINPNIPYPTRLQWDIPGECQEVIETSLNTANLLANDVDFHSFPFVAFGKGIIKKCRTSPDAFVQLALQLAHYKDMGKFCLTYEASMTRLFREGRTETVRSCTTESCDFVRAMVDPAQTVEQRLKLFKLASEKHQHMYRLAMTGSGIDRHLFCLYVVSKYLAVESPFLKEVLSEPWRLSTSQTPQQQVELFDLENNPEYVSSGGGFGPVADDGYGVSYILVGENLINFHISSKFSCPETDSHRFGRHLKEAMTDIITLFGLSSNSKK
The assay can be described thus: (§2) SUPPLEMENTARY: Inhibition of Carnitine palmitoyltransferase 1, liver isoform.

Assay [5] has as its target T5, Carnitine O-palmitoyltransferase 1, liver isoform (Rattus norvegicus, UniProt P32198).
T5 sequence (P32198 whole entry): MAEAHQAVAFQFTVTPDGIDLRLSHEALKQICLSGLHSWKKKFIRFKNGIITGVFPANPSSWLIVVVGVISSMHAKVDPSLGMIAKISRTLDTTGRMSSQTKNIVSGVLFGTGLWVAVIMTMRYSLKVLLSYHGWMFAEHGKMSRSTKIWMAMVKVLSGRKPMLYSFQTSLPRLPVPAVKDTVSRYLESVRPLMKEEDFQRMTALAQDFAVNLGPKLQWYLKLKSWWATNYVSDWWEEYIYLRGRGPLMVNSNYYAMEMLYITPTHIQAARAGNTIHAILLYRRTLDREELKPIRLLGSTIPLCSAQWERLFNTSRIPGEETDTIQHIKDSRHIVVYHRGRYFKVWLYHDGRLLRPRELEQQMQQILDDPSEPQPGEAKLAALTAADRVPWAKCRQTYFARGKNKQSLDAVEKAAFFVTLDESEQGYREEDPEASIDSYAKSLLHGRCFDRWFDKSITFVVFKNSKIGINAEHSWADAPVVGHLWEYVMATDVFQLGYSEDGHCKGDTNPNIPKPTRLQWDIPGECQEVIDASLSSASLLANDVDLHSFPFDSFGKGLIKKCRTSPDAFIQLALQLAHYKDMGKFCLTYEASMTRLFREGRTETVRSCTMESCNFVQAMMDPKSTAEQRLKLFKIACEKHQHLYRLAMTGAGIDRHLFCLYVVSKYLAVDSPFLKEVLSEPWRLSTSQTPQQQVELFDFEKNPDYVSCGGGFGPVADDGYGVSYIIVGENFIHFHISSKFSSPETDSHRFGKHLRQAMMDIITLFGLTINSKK
The description is as §2.

For `COc1ccc(Cl)cc1S(=O)(=O)N1C[C@H](C(=O)O)Oc2ccc(C(=O)Nc3ccccc3)cc21`, the pIC50 is 4.50 in assay [1]; less than 4.00 in assay [2]; less than 4.00 in assay [3]; 7.33 in assay [4]; 7.82 in assay [5].
For `COc1ccc(Cl)cc1S(=O)(=O)c1nn(C)c2ccc(C(=O)Nc3ccc(C(=O)O)c(Cl)c3)cc12`, the pIC50 is 5.77 in assay [1]; 4.67 in assay [2]; 4.45 in assay [3]; 7.38 in assay [4]; 7.80 in assay [5].
The corresponding values for `O=C(COc1ccccc1)NS(=O)(=O)Cc1ccc(-c2nc([C@H]3CCCCN3C(=O)COc3ccccc3)cs2)cc1` are 5.64, 5.62, 5.18, 6.67 and 6.44.
The corresponding values for `O=C(COc1ccccc1)OCc1cc(-c2nc([C@H]3CCCCN3C(=O)COc3ccccc3)cs2)ccn1` are 4.75, 4.35, less than 4.00, 6.30 and 5.98.
The matching figures for `COC(=O)c1cccc(-c2nc([C@H]3CCCCN3C(=O)COc3ccccc3)sc2C)c1`: less than 4.00, 4.22, less than 4.00, 6.52 and 6.20.
Consider `COc1ccc(Cl)cc1S(=O)(=O)N(C)c1cc(C(=O)Nc2ccc(CC(=O)O)cc2)cc2c1OCO2`, for which the pIC50 in assay [1] was 6.07; in assay [2] it was less than 4.00; in assay [3], less than 4.00; in assay [4], 6.41; in assay [5] it was 6.44.
With `CCN(c1cc(C(=O)Nc2ccc(CC(=O)O)cc2)cc2c1OCO2)S(=O)(=O)c1cc(Cl)ccc1OC`, the pIC50 in assay [1] was 5.55; in assay [2], 4.42; in assay [3], less than 4.00; in assay [4], 6.55; in assay [5], 6.46.
Regarding `CCN(c1cc(C(=O)Nc2ccn(CC(=O)O)n2)cc2c1OCO2)S(=O)(=O)c1cc(Cl)ccc1OC`, the pIC50 in assay [1] was 5.86; in assay [2], less than 4.00; in assay [3] it was less than 4.00; in assay [4], 6.47; in assay [5] it was 6.16.
Turning to `CCCN(c1cc(C(=O)Nc2ccn(CC(=O)O)n2)cc2c1OCO2)S(=O)(=O)c1cc(Cl)ccc1OC`, the pIC50 in assay [1] is 5.75; in assay [2], less than 4.00; in assay [3] it was less than 4.00; in assay [4] it was 6.49; in assay [5], 6.60.
Consider `COc1ccc(Cl)cc1S(=O)(=O)N(c1cc(C(=O)Nc2nc(CC(=O)O)cs2)cc2c1OCO2)C(C)C`, for which the pIC50 in assay [1] is 5.53; in assay [2], 4.86; in assay [3], less than 4.00; in assay [4], 6.65; in assay [5] it was 6.73.
Turning to `COc1ccc(Cl)cc1S(=O)(=O)N(c1cc(C(=O)Nc2ccc(CC(=O)O)cc2)cc2c1OCO2)C(C)C`, the pIC50 in assay [1] was 6.22; in assay [2] it was 4.28; in assay [3], less than 4.00; in assay [4] it was 6.05; in assay [5], 5.96.
As to `COc1ccc(Cl)cc1S(=O)(=O)N(c1cc(C(=O)Nc2ccn(CC(=O)O)n2)cc2c1OCO2)C(C)C`, the pIC50 in assay [1] is 5.28; in assay [2], less than 4.00; in assay [3], less than 4.00; in assay [4], 5.97; in assay [5] it was 5.22.
As to `COCCN(c1cc(C(=O)Nc2ccc(CC(=O)O)cc2)cc2c1OCO2)S(=O)(=O)c1cc(Cl)ccc1OC`, the pIC50 in assay [1] is 5.82; in assay [2], less than 4.00; in assay [3] it was less than 4.00; in assay [4], 6.21; in assay [5], 6.34.
On to `COCCN(c1cc(C(=O)Nc2ncc(CC(=O)O)s2)cc2c1OCO2)S(=O)(=O)c1cc(Cl)ccc1OC`, for which the pIC50 in assay [1] was 6.04; in assay [2], less than 4.00; in assay [3], less than 4.00; in assay [4] it was 6.50; in assay [5], 6.80.
As to `COCCN(c1cc(C(=O)Nc2ccn(CC(=O)O)n2)cc2c1OCO2)S(=O)(=O)c1cc(Cl)ccc1OC`, the pIC50 is 5.27 in assay [1]; less than 4.00 in assay [2]; less than 4.00 in assay [3]; 6.47 in assay [4]; 6.10 in assay [5].

Broadly, the pIC50 is −log10 of the IC50, conventionally taken in molar units. A lower pIC50 goes with a high IC50.
